# Assays:
# [1] = AUCN in Wistar Han rat at 3 mg/kg, po; format: ADME, organism-based; conditions: in vivo
# [2] = Drug uptake in rat brain at 3 mg/kg, po measured after 8 hrs; format: ADME, organism-based; conditions: in vivo
# [3] = Fraction unbound in Wistar Han rat plasma at 2.5 uM by equilibrium dialysis; format: ADME, cell-free
# Protein O-GlcNAcase [4] = biological target: T1, Protein O-GlcNAcase (Rattus norvegicus, UniProt Q8VIJ5); experiment: Inhibition of OGA in rat PC12 cells assessed as OGlcNAcylated protein level incubated for 24 hrs by ELISA; format: cell-based
# T1 sequence (Q8VIJ5 whole entry): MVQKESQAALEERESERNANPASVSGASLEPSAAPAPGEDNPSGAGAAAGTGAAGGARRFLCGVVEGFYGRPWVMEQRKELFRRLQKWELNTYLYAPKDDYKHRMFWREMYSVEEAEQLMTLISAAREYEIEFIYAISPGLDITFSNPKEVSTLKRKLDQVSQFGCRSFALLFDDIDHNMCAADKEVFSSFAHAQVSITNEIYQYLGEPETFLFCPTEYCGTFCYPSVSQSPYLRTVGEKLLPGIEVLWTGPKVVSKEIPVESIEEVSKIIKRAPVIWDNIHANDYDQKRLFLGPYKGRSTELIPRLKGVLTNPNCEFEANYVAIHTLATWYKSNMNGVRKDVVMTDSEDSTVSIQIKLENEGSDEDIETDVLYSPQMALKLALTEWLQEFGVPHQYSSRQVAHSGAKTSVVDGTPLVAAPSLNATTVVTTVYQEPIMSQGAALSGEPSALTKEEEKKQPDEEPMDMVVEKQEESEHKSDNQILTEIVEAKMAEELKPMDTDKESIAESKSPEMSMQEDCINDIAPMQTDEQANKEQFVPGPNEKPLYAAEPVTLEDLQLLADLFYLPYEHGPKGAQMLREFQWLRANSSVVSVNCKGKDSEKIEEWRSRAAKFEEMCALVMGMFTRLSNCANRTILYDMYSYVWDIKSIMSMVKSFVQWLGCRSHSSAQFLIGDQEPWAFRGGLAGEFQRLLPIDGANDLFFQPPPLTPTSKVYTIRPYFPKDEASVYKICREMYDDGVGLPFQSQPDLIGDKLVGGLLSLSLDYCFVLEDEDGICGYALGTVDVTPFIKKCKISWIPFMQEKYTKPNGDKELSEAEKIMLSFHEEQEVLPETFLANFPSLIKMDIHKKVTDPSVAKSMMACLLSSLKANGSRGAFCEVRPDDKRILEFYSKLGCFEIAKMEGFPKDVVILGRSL
# [5] = biological target: T2, Beta-hexosaminidase subunit beta (Homo sapiens, UniProt P07686); experiment: Inhibition of human beta hexosaminidase assessed as inhibitory constant using 4-methylumbelliferyl N-acetyl-beta-D-glucosaminide dihydrate as substrate measured every 60 sec for 45 mins by fluorescence spectrophotometry
# T2 sequence (P07686 whole entry): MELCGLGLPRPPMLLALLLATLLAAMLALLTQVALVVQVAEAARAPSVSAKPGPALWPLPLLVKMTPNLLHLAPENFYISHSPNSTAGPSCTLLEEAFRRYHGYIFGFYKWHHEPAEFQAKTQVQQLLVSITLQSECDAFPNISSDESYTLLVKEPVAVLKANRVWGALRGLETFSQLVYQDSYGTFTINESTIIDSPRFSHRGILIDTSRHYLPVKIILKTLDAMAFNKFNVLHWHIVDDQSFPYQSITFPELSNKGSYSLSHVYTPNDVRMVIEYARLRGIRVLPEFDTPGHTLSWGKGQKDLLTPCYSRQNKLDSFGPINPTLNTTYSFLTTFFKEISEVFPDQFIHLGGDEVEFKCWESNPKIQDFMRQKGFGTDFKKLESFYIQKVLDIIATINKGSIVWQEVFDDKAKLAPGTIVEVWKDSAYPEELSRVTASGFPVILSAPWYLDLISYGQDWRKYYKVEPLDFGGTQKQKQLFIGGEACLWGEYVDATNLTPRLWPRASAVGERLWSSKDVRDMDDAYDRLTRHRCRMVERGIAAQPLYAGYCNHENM
# Rattus norvegicus [6] = experiment: Elevation of O-protein in rat brain at 3 mg/kg, po measured after 8 hrs relative to control; format: functional
# [7] = Oral bioavailability in Wistar Han rat at 3 mg/kg; format: ADME, organism-based; conditions: in vivo
# Rattus norvegicus [8] = experiment: Elevation of O-protein in rat brain at 10 mg/kg, po measured after 24 hrs; format: functional
# MDR1 = experiment: Apparent permeability in pig LLC-PK1 cells transfected with MDR1; format: ADME, cell-based, Sus scrofa
# [9] = Clearance in Wistar Han rat at 2 mg/kg, iv; format: ADME, organism-based; conditions: in vivo
# [10] = Ratio of drug uptake in rat brain to plasma at 3 mg/kg, po measured after 8 hrs; format: ADME, organism-based; conditions: read-out: BPR
# [11] = AUC (0 to 24 hrs) in rat brain at 10 mg/kg, po measured upto 24 hrs; format: ADME, organism-based; set-up: dose 10 mg/kg, time < 24 hr, route oral; conditions: in vivo
# [12] = Volume of distribution at steady state in Wistar Han rat at 2 mg/kg, iv or 3 mg/kg, po; format: ADME, organism-based; conditions: in vivo, read-out: Vdss
# Rattus norvegicus [13] = experiment: Increase in O-protein AUC in rat brain at 10 mg/kg, po measured upto 24 hrs; format: ADME, organism-based; conditions: in vivo
# Protein O-GlcNAcase [14] = biological target: T3, Protein O-GlcNAcase (Homo sapiens, UniProt O60502); experiment: Inhibition of recombinant human OGA
# T3 sequence (O60502 whole entry): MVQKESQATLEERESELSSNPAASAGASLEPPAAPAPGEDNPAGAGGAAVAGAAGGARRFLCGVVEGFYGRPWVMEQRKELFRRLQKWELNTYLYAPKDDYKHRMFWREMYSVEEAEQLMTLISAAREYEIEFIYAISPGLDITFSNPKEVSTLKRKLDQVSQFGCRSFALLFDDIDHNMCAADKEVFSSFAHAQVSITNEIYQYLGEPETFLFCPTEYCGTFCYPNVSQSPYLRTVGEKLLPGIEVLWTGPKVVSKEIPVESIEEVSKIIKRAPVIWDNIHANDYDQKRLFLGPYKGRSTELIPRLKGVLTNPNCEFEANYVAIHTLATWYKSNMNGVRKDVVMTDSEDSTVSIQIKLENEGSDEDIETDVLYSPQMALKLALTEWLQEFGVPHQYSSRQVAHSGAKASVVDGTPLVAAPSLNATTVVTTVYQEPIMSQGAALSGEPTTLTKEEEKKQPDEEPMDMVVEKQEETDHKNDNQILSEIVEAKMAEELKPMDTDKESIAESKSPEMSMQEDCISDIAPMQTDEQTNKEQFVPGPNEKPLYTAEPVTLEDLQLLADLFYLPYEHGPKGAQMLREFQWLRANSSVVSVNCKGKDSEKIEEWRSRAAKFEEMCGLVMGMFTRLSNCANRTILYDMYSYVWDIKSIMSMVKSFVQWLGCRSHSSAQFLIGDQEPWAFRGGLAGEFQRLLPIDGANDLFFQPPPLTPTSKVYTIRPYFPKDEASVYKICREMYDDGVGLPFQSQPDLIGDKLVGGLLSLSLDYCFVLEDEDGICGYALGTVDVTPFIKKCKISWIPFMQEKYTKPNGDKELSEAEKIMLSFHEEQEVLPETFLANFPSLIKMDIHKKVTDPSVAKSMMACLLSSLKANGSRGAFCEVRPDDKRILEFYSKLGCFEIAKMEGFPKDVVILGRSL
# [15] = Half life in Wistar Han rat at 2 mg/kg, iv; format: ADME, organism-based; conditions: in vivo
# [16] = Fraction unbound in human plasma at 2.5 uM by equilibrium dialysis; format: ADME, cell-free
# [17] = Tmax in rat brain at 10 mg/kg, po measured upto 24 hrs; format: ADME, organism-based
# [18] = Volume of distribution at steady state in Wistar Han rat at 1 mg/kg, iv or 3 mg/kg, po; format: ADME, organism-based; conditions: in vivo, read-out: Vdss
# [19] = Half life in Wistar Han rat at 1 mg/kg, iv; format: ADME, organism-based; conditions: in vivo
# [20] = Clearance in Wistar Han rat at 1 mg/kg, iv; format: ADME, organism-based; conditions: in vivo
# [21] = Ratio of drug uptake in rat brain to plasma at 3 mg/kg, po measured after 24 hrs; format: ADME, organism-based; conditions: read-out: BPR
# Cytochrome P450 3A4 = Cytochrome P450 3A4 (Homo sapiens, UniProt P08684); experiment: Inhibition of CYP3A4 (unknown origin); format: ADME
# Chain of Cytochrome P450 3A4 (P08684 whole entry): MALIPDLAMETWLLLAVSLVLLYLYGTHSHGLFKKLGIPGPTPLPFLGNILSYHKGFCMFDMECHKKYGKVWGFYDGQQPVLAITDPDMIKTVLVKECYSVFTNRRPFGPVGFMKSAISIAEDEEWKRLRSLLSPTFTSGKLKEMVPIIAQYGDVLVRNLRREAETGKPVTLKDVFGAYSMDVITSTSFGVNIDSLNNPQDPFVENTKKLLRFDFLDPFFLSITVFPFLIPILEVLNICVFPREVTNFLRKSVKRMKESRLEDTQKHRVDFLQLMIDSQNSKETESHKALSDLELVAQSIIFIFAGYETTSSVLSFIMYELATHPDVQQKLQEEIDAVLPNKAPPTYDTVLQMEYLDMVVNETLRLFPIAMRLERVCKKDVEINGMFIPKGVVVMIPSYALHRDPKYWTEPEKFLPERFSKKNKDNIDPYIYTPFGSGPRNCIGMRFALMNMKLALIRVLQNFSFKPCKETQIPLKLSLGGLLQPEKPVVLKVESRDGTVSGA
# [22] = biological target: T4, Nuclear receptor subfamily 1 group I member 2 (Homo sapiens, UniProt O75469); experiment: Activation of PXR (unknown origin) assessed as CYP3A4 induction
# T4 sequence (O75469 whole entry): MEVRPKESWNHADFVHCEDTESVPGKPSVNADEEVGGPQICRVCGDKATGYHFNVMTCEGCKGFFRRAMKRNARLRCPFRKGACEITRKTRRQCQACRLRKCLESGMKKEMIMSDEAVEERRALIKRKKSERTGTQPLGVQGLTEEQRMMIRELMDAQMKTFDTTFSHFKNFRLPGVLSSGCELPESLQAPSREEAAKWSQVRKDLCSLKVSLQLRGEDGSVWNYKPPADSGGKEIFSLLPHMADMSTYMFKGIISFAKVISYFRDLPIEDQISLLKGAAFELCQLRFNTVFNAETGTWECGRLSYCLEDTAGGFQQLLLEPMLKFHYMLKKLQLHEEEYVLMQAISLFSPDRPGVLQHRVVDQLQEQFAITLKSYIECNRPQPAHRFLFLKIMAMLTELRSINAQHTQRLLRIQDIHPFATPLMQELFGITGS
# Cytochrome P450 2C9 = Cytochrome P450 2C9 (Homo sapiens, UniProt P11712); experiment: Inhibition of CYP2C9 (unknown origin); format: ADME
# Chain of Cytochrome P450 2C9 (P11712 whole entry): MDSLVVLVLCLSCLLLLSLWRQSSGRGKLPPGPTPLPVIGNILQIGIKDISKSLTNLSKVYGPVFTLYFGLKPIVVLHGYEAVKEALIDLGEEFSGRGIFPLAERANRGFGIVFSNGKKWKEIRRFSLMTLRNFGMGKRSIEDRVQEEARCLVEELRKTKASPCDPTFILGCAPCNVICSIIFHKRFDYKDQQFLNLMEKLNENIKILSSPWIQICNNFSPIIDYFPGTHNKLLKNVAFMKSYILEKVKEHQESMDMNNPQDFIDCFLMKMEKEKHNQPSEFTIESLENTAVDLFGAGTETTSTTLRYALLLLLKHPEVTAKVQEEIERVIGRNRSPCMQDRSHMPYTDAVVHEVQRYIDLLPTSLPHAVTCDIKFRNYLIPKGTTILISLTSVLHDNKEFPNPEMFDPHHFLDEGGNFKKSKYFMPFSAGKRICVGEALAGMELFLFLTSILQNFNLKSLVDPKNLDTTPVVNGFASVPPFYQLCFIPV
# Cytochrome P450 2D6 = Cytochrome P450 2D6 (Homo sapiens, UniProt P10635); experiment: Inhibition of CYP2D6 (unknown origin); format: ADME
# Chain of Cytochrome P450 2D6 (P10635 whole entry): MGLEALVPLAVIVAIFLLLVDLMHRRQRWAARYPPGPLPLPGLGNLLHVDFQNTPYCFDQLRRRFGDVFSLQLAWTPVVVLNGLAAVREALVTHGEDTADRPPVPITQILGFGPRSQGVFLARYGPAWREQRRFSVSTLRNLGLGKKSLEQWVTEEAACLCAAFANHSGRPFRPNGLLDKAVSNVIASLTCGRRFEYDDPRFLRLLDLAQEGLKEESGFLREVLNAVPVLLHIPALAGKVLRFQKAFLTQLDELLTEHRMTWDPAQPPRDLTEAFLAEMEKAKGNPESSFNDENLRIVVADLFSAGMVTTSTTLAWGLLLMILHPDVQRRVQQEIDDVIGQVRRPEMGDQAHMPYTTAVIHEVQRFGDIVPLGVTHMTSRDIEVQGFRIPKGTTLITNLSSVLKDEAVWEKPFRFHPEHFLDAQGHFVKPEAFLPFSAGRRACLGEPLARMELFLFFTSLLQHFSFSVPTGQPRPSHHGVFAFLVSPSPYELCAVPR
# Rattus norvegicus [23] = experiment: Elevation of O-protein in rat brain at 3 mg/kg, po measured after 24 hrs relative to control; format: functional
# [24] = biological target: Sodium channel protein type 5 subunit alpha (Homo sapiens, UniProt Q14524); experiment: Inhibition of Nav1.5 (unknown origin)
# Chain of Sodium channel protein type 5 subunit alpha (Q14524 whole entry): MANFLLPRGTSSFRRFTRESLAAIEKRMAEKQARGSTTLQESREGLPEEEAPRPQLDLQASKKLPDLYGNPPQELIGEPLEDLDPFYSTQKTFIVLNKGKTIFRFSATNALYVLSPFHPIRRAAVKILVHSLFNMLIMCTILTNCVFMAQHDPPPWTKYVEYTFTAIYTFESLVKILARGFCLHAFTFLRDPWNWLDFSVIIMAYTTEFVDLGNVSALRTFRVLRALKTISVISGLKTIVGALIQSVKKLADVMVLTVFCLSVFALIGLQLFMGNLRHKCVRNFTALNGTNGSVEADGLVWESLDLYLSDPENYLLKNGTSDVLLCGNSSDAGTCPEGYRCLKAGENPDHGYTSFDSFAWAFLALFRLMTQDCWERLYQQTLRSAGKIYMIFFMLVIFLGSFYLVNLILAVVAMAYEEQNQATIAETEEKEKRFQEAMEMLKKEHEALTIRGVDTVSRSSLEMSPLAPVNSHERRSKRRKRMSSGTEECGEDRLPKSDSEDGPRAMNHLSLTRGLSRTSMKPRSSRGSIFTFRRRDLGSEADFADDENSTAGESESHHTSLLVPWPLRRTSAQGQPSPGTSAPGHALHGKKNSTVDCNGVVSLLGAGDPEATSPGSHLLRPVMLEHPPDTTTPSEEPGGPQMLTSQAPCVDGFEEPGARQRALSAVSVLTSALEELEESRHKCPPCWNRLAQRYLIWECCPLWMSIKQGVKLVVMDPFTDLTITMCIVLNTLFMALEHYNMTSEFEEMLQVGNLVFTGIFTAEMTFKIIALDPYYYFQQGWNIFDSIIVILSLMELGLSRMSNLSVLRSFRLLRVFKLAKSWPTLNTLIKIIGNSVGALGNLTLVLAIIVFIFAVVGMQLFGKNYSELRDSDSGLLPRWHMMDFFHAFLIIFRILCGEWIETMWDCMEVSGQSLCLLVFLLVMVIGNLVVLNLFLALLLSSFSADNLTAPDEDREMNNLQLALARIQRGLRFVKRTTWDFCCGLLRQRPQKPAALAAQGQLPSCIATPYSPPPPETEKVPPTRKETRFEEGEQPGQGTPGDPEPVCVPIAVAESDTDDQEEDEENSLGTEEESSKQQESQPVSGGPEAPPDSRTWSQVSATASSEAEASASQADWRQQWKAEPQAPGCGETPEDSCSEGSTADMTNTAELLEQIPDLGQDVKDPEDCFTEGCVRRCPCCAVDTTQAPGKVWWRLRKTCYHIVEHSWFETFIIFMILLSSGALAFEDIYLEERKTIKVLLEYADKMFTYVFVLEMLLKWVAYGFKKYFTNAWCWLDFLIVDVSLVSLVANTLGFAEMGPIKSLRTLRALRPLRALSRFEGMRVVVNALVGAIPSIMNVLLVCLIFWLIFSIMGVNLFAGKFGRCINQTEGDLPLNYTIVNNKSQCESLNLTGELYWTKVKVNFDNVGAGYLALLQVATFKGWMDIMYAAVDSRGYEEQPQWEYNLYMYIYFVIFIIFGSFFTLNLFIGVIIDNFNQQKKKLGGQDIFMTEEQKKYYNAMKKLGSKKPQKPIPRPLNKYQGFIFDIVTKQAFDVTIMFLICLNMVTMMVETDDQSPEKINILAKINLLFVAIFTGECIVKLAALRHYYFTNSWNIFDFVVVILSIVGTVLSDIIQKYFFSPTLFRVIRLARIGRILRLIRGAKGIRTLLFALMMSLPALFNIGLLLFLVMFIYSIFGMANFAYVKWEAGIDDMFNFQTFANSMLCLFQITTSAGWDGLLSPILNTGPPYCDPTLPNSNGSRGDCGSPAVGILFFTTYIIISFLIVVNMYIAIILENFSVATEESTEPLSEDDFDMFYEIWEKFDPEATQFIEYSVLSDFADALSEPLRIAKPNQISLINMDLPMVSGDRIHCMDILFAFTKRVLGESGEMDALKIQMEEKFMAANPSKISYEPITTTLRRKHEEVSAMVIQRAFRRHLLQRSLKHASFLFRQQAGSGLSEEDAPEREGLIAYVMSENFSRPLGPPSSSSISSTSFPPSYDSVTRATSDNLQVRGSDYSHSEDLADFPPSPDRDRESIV
# [25] = biological target: Voltage-gated inwardly rectifying potassium channel KCNH2 (Homo sapiens, UniProt Q12809); experiment: Displacement of MK-0499 from human ERG
# Chain of Voltage-gated inwardly rectifying potassium channel KCNH2 (Q12809 whole entry): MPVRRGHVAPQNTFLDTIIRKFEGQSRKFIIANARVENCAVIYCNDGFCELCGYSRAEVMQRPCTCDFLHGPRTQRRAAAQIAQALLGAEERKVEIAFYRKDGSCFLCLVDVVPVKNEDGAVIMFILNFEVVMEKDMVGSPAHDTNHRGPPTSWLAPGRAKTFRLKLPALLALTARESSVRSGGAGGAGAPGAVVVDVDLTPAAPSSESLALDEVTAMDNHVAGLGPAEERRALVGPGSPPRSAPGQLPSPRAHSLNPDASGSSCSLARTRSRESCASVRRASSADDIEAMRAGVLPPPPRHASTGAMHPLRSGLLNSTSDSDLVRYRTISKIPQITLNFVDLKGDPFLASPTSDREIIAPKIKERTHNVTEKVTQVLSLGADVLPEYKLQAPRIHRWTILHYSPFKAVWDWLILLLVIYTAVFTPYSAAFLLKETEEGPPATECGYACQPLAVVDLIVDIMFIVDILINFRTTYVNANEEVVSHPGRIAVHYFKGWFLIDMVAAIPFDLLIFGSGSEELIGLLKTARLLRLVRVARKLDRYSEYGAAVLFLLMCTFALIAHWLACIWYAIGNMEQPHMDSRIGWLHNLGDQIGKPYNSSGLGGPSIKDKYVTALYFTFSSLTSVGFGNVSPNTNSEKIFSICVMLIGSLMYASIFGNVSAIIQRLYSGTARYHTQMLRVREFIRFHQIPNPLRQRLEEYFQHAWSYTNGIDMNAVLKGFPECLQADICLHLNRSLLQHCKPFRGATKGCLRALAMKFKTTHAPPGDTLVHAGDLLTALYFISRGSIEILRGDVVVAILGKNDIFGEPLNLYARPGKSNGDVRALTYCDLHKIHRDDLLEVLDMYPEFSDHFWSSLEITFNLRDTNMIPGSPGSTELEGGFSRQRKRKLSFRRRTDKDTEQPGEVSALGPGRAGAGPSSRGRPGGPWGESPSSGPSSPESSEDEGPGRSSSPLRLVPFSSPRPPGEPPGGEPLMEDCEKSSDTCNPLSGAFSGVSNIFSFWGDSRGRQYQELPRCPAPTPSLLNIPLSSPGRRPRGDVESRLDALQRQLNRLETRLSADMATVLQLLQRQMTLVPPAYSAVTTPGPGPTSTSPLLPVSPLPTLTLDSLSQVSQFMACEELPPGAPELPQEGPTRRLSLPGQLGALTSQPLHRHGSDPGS
# [26] = Drug uptake in rat brain at 3 mg/kg, po measured after 24 hrs; format: ADME, organism-based; conditions: in vivo
# [27] = biological target: Voltage-dependent L-type calcium channel subunit alpha-1C (Homo sapiens, UniProt Q13936); experiment: Inhibition of Cav1.2 (unknown origin)
AUC/dose [1] [µM·kg·h/mg],Drug uptake [2] [nmol/g],fraction unbound at 2.5 µM [3],EC50 (Protein O-GlcNAcase [4]) [nM],Ki [5] [nM],bioavailability [7] [%],Papp (MDR1) [×10⁻⁶ cm/s],clearance [9] [mL/min/kg],Kp at 8 h [10],AUC [11] [nM·h/g],Vd [12] [L/kg],fold change (FC) (Rattus norvegicus [13]),Ki (Protein O-GlcNAcase [14]) [nM],half-life [15] [h],fraction unbound at 2.5 µM [16],Tmax [17] [h],Kp at 24 h [21],SMILES,fold change (FC) (Rattus norvegicus [6]),fold change (FC) (Rattus norvegicus [8]),fold change (FC) (Rattus norvegicus [23]),other results
4.27,0.142,0.93,58.2,> 10000,90.4,20,11.4,0.189,35.91,2.96,11.69,23,4.29,0.97,8,,CNC1=N[C@@H]2[C@H](F)[C@H](O)[C@@H](C(F)F)O[C@@H]2S1,2.51,2.04,,
2.96,,> 0.99,328,> 10000,60.5,26,,,,,,35,,> 0.99,,,CNC1=N[C@@H]2[C@H](F)[C@H](O)[C@@H](CF)O[C@@H]2S1,,,,Vd [18]: 0.85 L/kg; half-life [19]: 1.18 h; clearance [20]: 14.4 mL/min/kg
1.77,0.228,0.98,176,,102,6.1,37.4,1.49,,3.8,,20,2.39,0.87,,≥ 18.7,CCNC1=N[C@@H]2[C@@H](O)[C@H](O)[C@@H](CF)O[C@@H]2S1,1.84,,1.74,IC50 (Cytochrome P450 3A4): > 50000 nM; EC50 [22]: > 30000 nM; IC50 (Cytochrome P450 2C9): > 50000 nM; IC50 (Cytochrome P450 2D6): > 50000 nM; IC50 [24]: > 30000 nM; IC50 [25]: > 30000 nM; Drug uptake [26]: 0.047 nmol/g; IC50 [27]: > 30000 nM
0.43,0.147,0.95,31.2,3900,49.7,14,70.5,1.56,4.89,10.3,34.18,2.4,3.81,> 0.99,12,3.03,CN(C)C1=N[C@@H]2[C@@H](O)[C@H](O)[C@@H](C(F)F)O[C@@H]2S1,2.53,2.83,2.57,Drug uptake [26]: 0.049 nmol/g
1.9,0.289,0.88,,> 10000,74.7,24,30.4,2.22,53.87,2.23,19.68,,1.66,> 0.99,8,,CNC1=N[C@@H]2C[C@H](O)[C@@H](C(F)F)O[C@@H]2S1,1.8,2.69,,
3.36,0.068,0.88,34.4,790,132,5.3,27.8,0.6,,1.79,,0.55,1.71,0.96,,≥ 7.9,CNC1=N[C@@H]2[C@@H](O)[C@H](O)[C@@H](CF)O[C@@H]2S1,2.44,,1.65,Drug uptake [26]: 0.025 nmol/g

# Source: ChEMBL document CHEMBL4354805, “Discovery of MK-8719, a Potent O-GlcNAcase Inhibitor as a Potential Treatment for Tauopathies” (J Med Chem, 2019)
